In patent publication US11925653B2, “Combination therapy effective against microorganisms, including drug resistant microorganisms” (Fleurir ABX LLC, priority 2021, dated 2024):

What was measured:
P. mirabilis = assay: MIC and synergy checkerboard assay, broth microdilution (uUTI species); assay type: cell-based, Proteus mirabilis
Procedure: (§1) Minimum inhibitory concentration (MIC) assays were performed in a manner as described for the CLSI Agar dilution or broth microdilution assay guideline (see, Clinical Laboratory Standards Institute, 2009, Methods for Dilution Antimicrobial Susceptibility Tests for Bacteria That Grow Aerobically; Approved Standard, Eighth Edition, M07-A8, Vol. 29, No. 2). For example, known antibiotics or the compositions described herein were dissolved, serially diluted, and then added to tempered molten Mueller-Hinton Agar before pouring of plates; or were dissolved, and then serially diluted in 100 μL cation-adjusted Mueller-Hinton broth across the assay plate in the classical 2-fold geometric format. D-glucose-6-phosphate was included as a medium supplement in both agar, and broth at a concentration of 50 mg/L. Antibiotic concentrations for agar assay were at the final concentration. Antibiotic concentrations for broth microdilution in each well at this point were double what the final assay concentration would be. Bacterial inocula were prepared by swabbing several colonies from a fresh agar plate, and re-suspending the bacteria to a density that was the 0.5 McFarland turbidity standard, considered close or equivalent to 1×10^8 CFU/mL. For agar dilution, a steers replicator was utilized to deliver 1×10^4 CFU/spot. For broth microdilution, the bacterial inocula were diluted in the cation-adjusted Mueller-Hinton broth to 1×10^6 CFU/mL, and 100 μL was overlayered onto the wells containing a diluted antibiotic or a composition described. Following incubation as per the guideline, results were recorded as growth or no growth, and the lowest concentration of the antibiotic or the composition described where no growth was observed was declared the MIC.
To assay for synergy of antibacterial combinations, a recognized synergy checkerboard assay, adapted from the CLSI guideline microdilution assay, was utilized (see Eliopoulos, G. M., and Moellering, R. C, Jr., 1996. Antimicrobial Combinations, pg. 330-396. In: Lorian, V. (Ed.), Antibiotics in Laboratory Medicine, 4th Ed., Williams & Wilkins; Baltimore, MD). In the case of the agar dilution method, each antibiotic alone, or in combination was added to agar prior to plate pouring. For broth microdilution, the first compound (or antibiotic or agent) was diluted in cation-adjusted Mueller-Hinton broth across the plate along the horizontal axis with each well in a row containing 50 μL of an identical concentration of compound (or antibiotic). Along the vertical axis a dilution series of the second compound (or antibiotic) was dispensed. At this point the drug concentrations are four-fold of the final desired working concentration. […] Following incubation, wells with no growth are noted. […]

E. faecalis = conditions: cited from earlier work
S. saprophyticus = assay: MIC and synergy checkerboard assay, broth microdilution (uUTI species); assay type: cell-based, Staphylococcus saprophyticus
Procedure: as §1, with “MIC. […]” for “MIC.”

bacteria = assay: spontaneous mutational frequency (SMF; resistance); assay type: cell-based; conditions: resistant colonies observed divided by total inoculum; plates with 4-fold MIC of the combination or 2-fold MIC of each antibiotic alone
Procedure: MIC was further evaluated to confirm resistance, and the spontaneous mutational frequency was calculated based on the following equation: […]
The spontaneous mutational frequency (SMF; resistance) was calculated as the number of resistant colonies observed divided by the total inoculum.

susceptible bacteria = conditions: susceptible strains of Escherichia coli and Enterococcus faecalis; cited from earlier work

C[C@@H]1O[C@@H]1P(=O)(O)O [Fosfomycin, cis-1,2-epoxypropyl phosphonic acid]
MIC (Combo as F/DP/SM; second compound as DP/SM) (P. mirabilis; P. mirabilis 1071120): 1 µg/mL
MIC (Combo as F/DP/SM; second compound as DP/SM) (P. mirabilis; P. mirabilis 1124256): 64 µg/mL
MIC (Combo as F/DP/SM; second compound as DP/SM) (P. mirabilis; P. mirabilis 1128681): 4 µg/mL
MIC (Combo as F/DP/SM; second compound as DP/SM) (P. mirabilis; P. mirabilis 1184042): 4 µg/mL
MIC (E. faecalis): 32 to 128 µg/mL
MIC (Combo as F/DP/SM; second compound as DP/SM) (S. saprophyticus; S. saprophyticus 1119421): 32 µg/mL
MIC (Combo as F/DP/SM; second compound as DP/SM) (S. saprophyticus; S. saprophyticus 1124324): 32 µg/mL
MIC (Combo as F/DP/SM; second compound as DP/SM) (S. saprophyticus; S. saprophyticus 1136894): 64 µg/mL
frequency of spontaneous mutants resistant (spontaneous mutational frequency, SMF) (bacteria): 6.33×10^−6
MIC (susceptible bacteria): ≤ 64 µg/mL
